Data taken from patent US10273242B2, “Compound inhibiting activities of BTK and/or JAK3 kinases” (BEIJING HANMI PHARMACEUTICAL CO., LTD., priority 2013, dated 2019).

What was measured:
[1] = target: T1, BTK kinase (Homo sapiens, UniProt Q06187); assay: BTK kinase activity inhibition assay (ADP-Glo); format: biochemical; conditions: ATP 50 μM
T1 construct: purchased Invitrogen PV3363
Procedure: The BTK kinase (purchased from Invitrogen, No.: PV3363) was diluted with reaction buffer (40 mM Tris-HCl, pH 7.5; 20 mM MgCl2, 0.1 mg/ml BSA; 1 mM DTT; 2 mM MnCl2) to 2 times of the final concentration (which is 1.1 ng/μL) and added with 5 μL/well to a 96-well plate. The compounds of the present invention were serial diluted with deionized water to four times (i.e., 40 μM, 4 μM, 0.4 μM, 80 nM, 16 nM, 3.2 nM, respectively) of the final concentrations (10 μM, 1 μM, 0.1 μM, 20 nM, 4 nM, 0.8 nM, respectively), and added at 2.5 μL/well to the test wells of the 96-well plate. After incubation at 25° C. for 10 minutes, ATP (50 μM) (purchased from Promega, No.: V9102) and 0.2 μg/μL of Poly E4Y1 (purchased from Sigma, No.: P0275-25MG) were added with 2.5 μL/well and incubated at 25° C. for 120 minutes. After the reaction was completed, 10 μL of the ADP-Glo reagent (ADP-Glo™ kinase assay kit, purchased from Promega, No.: V9102) was added to each well, and reacted at 25° C. for 40 minutes. Then 20 μL of the ADP-Glo kinase detection reagent was added to each well and reacted at 25° C. for 30 minutes. The kinase activity was detected by luminescence using the ADP-Glo kinase assay kit according to the manufacture's instruction, and IC50 values of the compounds of the present invention were calculated.

[2] = target: T2, JAK3 kinase (Homo sapiens, UniProt P52333); assay: JAK3 kinase activity inhibition assay (ADP-Glo); format: biochemical; conditions: ATP 10 μM
T2 construct: purchased SignalChem J03-11G
Procedure: The JAK3 kinase (purchased from SignalChem, No.: J03-11G) was diluted with reaction buffer (40 mM Tris-HCl, pH 7.5; 20 mM MgCl2, 0.1 mg/ml BSA; 1 mM DTT) to 2 times of the final concentration (which is 0.5 ng/μL) and added with 5 μL/well to a 96-well plate. The compounds of the present invention were serial diluted with deionized water to four times (i.e., 40 μM, 4 μM, 0.4 μM, 80 nM, 16 nM, 3.2 nM, respectively) of the final concentrations (10 μM, 1 μM, 0.1 μM, 20 nM, 4 nM, 0.8 nM, respectively), and added with 2.5 μL/well to the test wells of the 96-well plate. After incubation at 25° C. for 10 minutes, 10 μM of ATP (purchased from Promega, No.: V9102) and 0.2 μg/μL of Poly E4Y1 (purchased from Sigma, No.: P0275-25MG) were added at 2.5 μL/well and reacted at 25° C. for 60 minutes. After the reaction was completed, 10 μL of the ADP-Glo reagent (ADP-Glo™ kinase assay kit, purchased from Promega, No.: V9102) was added to each well and reacted at 25° C. for 40 minutes. Then 20 μL of the ADP-Glo kinase detection reagent was added to each well and reacted at 25° C. for 30 minutes. The kinase activity was detected by luminescence using the ADP-Glo kinase assay kit according to the manufacture's instruction, and IC50 values of the compounds of the present invention were calculated.

T1 sequence (Q06187 whole entry): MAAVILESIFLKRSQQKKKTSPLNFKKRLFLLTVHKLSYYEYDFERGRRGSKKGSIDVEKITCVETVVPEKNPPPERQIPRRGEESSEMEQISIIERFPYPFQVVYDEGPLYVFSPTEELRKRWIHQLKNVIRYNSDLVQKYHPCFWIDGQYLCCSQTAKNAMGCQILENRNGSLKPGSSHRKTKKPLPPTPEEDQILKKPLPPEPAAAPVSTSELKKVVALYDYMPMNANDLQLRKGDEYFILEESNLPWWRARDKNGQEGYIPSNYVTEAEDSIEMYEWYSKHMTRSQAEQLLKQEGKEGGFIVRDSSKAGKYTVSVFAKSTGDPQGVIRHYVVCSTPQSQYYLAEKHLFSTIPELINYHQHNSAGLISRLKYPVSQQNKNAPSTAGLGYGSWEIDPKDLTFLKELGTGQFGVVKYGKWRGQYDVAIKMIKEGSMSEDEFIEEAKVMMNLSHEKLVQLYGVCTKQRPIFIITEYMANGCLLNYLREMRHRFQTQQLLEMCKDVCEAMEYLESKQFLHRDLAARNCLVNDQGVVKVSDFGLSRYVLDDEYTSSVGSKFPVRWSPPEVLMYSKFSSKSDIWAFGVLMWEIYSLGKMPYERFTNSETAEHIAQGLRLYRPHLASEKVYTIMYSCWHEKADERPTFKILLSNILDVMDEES
T2 sequence (P52333 781-1124 limits assumed): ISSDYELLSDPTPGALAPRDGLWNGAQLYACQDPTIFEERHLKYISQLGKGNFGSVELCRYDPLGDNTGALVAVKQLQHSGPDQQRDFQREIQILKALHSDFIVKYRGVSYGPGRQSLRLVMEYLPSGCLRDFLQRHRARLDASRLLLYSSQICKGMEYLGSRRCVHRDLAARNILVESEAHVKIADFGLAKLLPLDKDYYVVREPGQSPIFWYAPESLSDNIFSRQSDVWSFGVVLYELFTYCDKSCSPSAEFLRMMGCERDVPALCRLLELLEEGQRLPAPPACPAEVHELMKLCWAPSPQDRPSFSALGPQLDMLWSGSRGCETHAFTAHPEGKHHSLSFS

| SMILES | IC50 [1] | IC50 [2] |
| --- | --- | --- |
| C=CC(=O)N[C@H]1CC[C@@H](Nc2nc(Nc3cnn(C)c3)nc3ccsc23)CC1 [Example 1, N-(cis-4-((2-((1-methyl-1H-pyrazol-4-yl)amino)thieno[3,2-d]pyrimidin-4-yl)amino)cyclohexyl)acrylamide] | ≤ 50 nM | – |
| C=CC(=O)NC1CCC(Nc2nc(Nc3cnn(C)c3)nc3ccsc23)CC1 (stereo not drawn) [Example 2] | ≤ 50 nM | – |
| C=CC(=O)N[C@H]1CC[C@@H](Nc2nc(Nc3cn[nH]c3)nc3ccsc23)CC1 [Example 4] | ≤ 50 nM | – |
| C=CC(=O)N[C@H]1CC[C@@H](Nc2nc(Nc3cc(C)ns3)nc3ccsc23)CC1 [Example 8] | ≤ 50 nM | – |
| C=CC(=O)N[C@H]1CC[C@@H](Nc2nc(Nc3cnn(C4CCC4)c3)nc3ccsc23)CC1 [Example 12] | ≤ 50 nM | – |
| C=CC(=O)N[C@H]1CC[C@@H](Nc2nc(Nc3cnn(C4CCCC4)c3)nc3ccsc23)CC1 [Example 13] | ≤ 50 nM | – |
| C=CC(=O)N[C@H]1CC[C@@H](Nc2nc(Nc3cnn(CCO)c3)nc3ccsc23)CC1 [Example 14] | ≤ 50 nM | – |
| C=CC(=O)N[C@H]1CC[C@@H](Nc2nc(Nc3cnn(CCOC)c3)nc3ccsc23)CC1 [Example 15] | ≤ 50 nM | – |
| C=CC(=O)N[C@H]1CC[C@@H](Nc2nc(Nc3cnn(CCF)c3)nc3ccsc23)CC1 [Example 16] | ≤ 50 nM | – |
| C=CC(=O)N[C@H]1CC[C@@H](Nc2nc(Nc3cnn(CCN(C)C)c3)nc3ccsc23)CC1 [Example 17] | 50 to 100 nM | – |
| C=CC(=O)N[C@H]1CC[C@@H](Nc2nc(Nc3cnn(CCN4CCOCC4)c3)nc3ccsc23)CC1 [Example 18] | ≤ 50 nM | – |
| C=CC(=O)N[C@H]1CC[C@@H](Nc2nc(Nc3ccc(OCCN4CCCCC4)c(F)c3)nc3ccsc23)CC1 [Example 30] | 50 to 100 nM | – |
| C=CC(=O)N[C@H]1CC[C@@H](Nc2nc(Nc3ccc(OCCN4CCN(C)CC4)c(F)c3)nc3ccsc23)CC1 [Example 31] | ≤ 50 nM | – |
| C=CC(=O)N[C@H]1CC[C@@H](Nc2nc(Nc3ccc(N4CCOCC4)cc3)nc3ccsc23)CC1 [Example 33] | 50 to 100 nM | – |
| C=CC(=O)N[C@H]1CC[C@@H](Nc2nc(Nc3ccc(N4CCN(C)CC4)cc3)nc3ccsc23)CC1 [Example 34] | ≤ 50 nM | – |
| C=CC(=O)N[C@H]1CC[C@@H](Nc2nc(Nc3ccc(N4CCN(C)CC4)c(F)c3)nc3ccsc23)CC1 [Example 35] | ≤ 50 nM | – |
| C=CC(=O)N[C@H]1CC[C@@H](Nc2nc(Nc3ccc(N4CCN(C)CC4)c(C)c3)nc3ccsc23)CC1 [Example 36] | 50 to 100 nM | – |
| C=CC(=O)N[C@H]1CC[C@@H](Nc2nc(Nc3ccc(NC4CCN(C)CC4)cc3)nc3ccsc23)CC1 [Example 43] | ≤ 50 nM | – |
| C=CC(=O)N[C@H]1CC[C@@H](Nc2nc(Nc3ccc(NC4CCN(C)CC4)c(F)c3)nc3ccsc23)CC1 [Example 44] | ≤ 50 nM | – |
| C=CC(=O)N[C@H]1CC[C@@H](Nc2nc(Nc3ccc(NC4CCN(C)CC4)c(C)c3)nc3ccsc23)CC1 [Example 45] | 50 to 100 nM | – |
| C=CC(=O)N[C@H]1CC[C@@H](Nc2nc(Nc3ccc(NC4CCN(C)CC4)c(Cl)c3)nc3ccsc23)CC1 [Example 46] | ≤ 50 nM | – |
| C=CC(=O)N[C@H]1CC[C@@H](Nc2nc(Nc3ccc(NC4CCN(C(C)C)CC4)c(F)c3)nc3ccsc23)CC1 [Example 47] | ≤ 50 nM | – |
| C=CC(=O)N[C@H]1CC[C@@H](Nc2nc(Nc3ccc(OC4CCN(C)CC4)c(F)c3)nc3ccsc23)CC1 [Example 49] | ≤ 50 nM | – |
| C=CC(=O)N[C@H]1CC[C@@H](Nc2nc(Nc3ccc(C(=O)N4CCN(C)CC4)cc3)nc3ccsc23)CC1 [Example 50] | ≤ 50 nM | – |
| C=CC(=O)N[C@H]1CC[C@@H](Nc2nc(Nc3ccc(C(=O)N4CCN(C)CC4)c(F)c3)nc3ccsc23)CC1 [Example 51] | ≤ 50 nM | – |
| C=CC(=O)N[C@H]1CC[C@@H](Nc2nc(Nc3ccc(C(=O)NC4CCN(C)CC4)c(F)c3)nc3ccsc23)CC1 [Example 52] | 50 to 100 nM | – |

| SMILES | IC50 [1] | IC50 [2] |
| --- | --- | --- |
| C=CC(=O)N[C@H]1CC[C@@H](Nc2nc(Nc3cnn(C)c3)nc3ccoc23)CC1 [Example 57, N-(cis-4-((2-((1-methyl-1H-pyrazol-4-yl)amino)furo[3,2-d]pyrimidin-4-yl)amino)cyclohexyl)acrylamide] | ≤ 50 nM | – |
| C#CC(=O)N[C@H]1CC[C@@H](Nc2nc(Nc3cnn(C)c3)nc3ccsc23)CC1 [Example 60, N-(cis-4-((2-((1-methyl-1H-pyrazol-4-yl)amino)thieno[3,2-d]pyrimidin-4-yl)amino)cyclohexyl)propynamide] | ≤ 50 nM | – |
| C=CC(=O)N1CC(CNc2nc(Nc3cnn(C)c3)nc3ccsc23)C1 [Example 61, 1-(3-(((2-((1-methyl-1H-pyrazol-4-yl)amino)thieno[3,2-d]pyrimidin-4-yl)amino)methyl)azetidin-1-yl)prop-2-en-1-one] | ≤ 50 nM | ≤ 10 nM |
| C=CC(=O)N1CC(CNc2nc(Nc3cn[nH]c3)nc3ccsc23)C1 [Example 62] | ≤ 50 nM | 10 to 100 nM |
| C=CC(=O)N1CC(CNc2nc(Nc3cc(C)[nH]n3)nc3ccsc23)C1 [Example 65] | ≤ 50 nM | 10 to 100 nM |
| C=CC(=O)N1CC(CNc2nc(Nc3cc(C)no3)nc3ccsc23)C1 [Example 69] | ≤ 50 nM | 10 to 100 nM |
| C=CC(=O)N1CC(CNc2nc(Nc3cc(C(C)C)no3)nc3ccsc23)C1 [Example 70] | 50 to 100 nM | 10 to 100 nM |
| C=CC(=O)N1CC(CNc2nc(Nc3cc(C)ns3)nc3ccsc23)C1 [Example 71] | ≤ 50 nM | ≤ 10 nM |
| C=CC(=O)N1CC(CNc2nc(Nc3cccs3)nc3ccsc23)C1 [Example 72] | ≤ 50 nM | 10 to 100 nM |
| C=CC(=O)N1CC(CNc2nc(Nc3cnoc3)nc3ccsc23)C1 [Example 73] | ≤ 50 nM | 10 to 100 nM |
| C=CC(=O)N1CC(CNc2nc(Nc3nccs3)nc3ccsc23)C1 [Example 74] | 50 to 100 nM | 100 to 1000 nM |
| C=CC(=O)N1CC[C@@H](Nc2nc(Nc3cnn(C)c3)nc3ccsc23)C1 [Example 75] | ≤ 50 nM | 10 to 100 nM |
| C=CC(=O)N1CC[C@@H](Nc2nc(Nc3cccs3)nc3ccsc23)C1 [Example 76] | ≤ 50 nM | 10 to 100 nM |
| C=CC(=O)N1CC[C@@H](Nc2nc(Nc3cn[nH]c3)nc3ccsc23)C1 [Example 77] | ≤ 50 nM | 10 to 100 nM |
| C=CC(=O)N1CC[C@@H](Nc2nc(Nc3cnoc3)nc3ccsc23)C1 [Example 78] | 50 to 100 nM | 10 to 100 nM |
| C=CC(=O)N1CC[C@@H](Nc2nc(Nc3cc(C)no3)nc3ccsc23)C1 [Example 79] | 100 to 1000 nM | 10 to 100 nM |
| C=CC(=O)N1CCC[C@@H](Nc2nc(Nc3cnn(C)c3)nc3ccsc23)C1 [Example 80] | ≤ 50 nM | 10 to 100 nM |
| C=CC(=O)N1CCC[C@@H](Nc2nc(Nc3cn[nH]c3)nc3ccsc23)C1 [Example 81] | ≤ 50 nM | 10 to 100 nM |
| C=CC(=O)N1CCC[C@@H](Nc2nc(Nc3cc(C)ns3)nc3ccsc23)C1 [Example 82] | ≤ 50 nM | ≤ 10 nM |
| C=CC(=O)N1CCC[C@@H](Nc2nc(Nc3cnoc3)nc3ccsc23)C1 [Example 83] | ≤ 50 nM | ≤ 10 nM |
| C=CC(=O)N1CCC[C@@H](Nc2nc(Nc3cccs3)nc3ccsc23)C1 [Example 84] | ≤ 50 nM | 10 to 100 nM |
| C=CC(=O)N1CCC[C@@H](Nc2nc(Nc3cc(C)no3)nc3ccsc23)C1 [Example 85] | 50 to 100 nM | 10 to 100 nM |
| C=CC(=O)N1CC(CNc2nc(Nc3cnn(C)c3)nc3ccoc23)C1 [Example 92, 1-(3-(((2-((1-methyl-1H-pyrazol-4-yl)amino)furo[3,2-d]pyrimidin-4-yl)amino)methyl)azetidin-1-yl)prop-2-en-1-one] | ≤ 50 nM | 100 to 1000 nM |
| C=CC(=O)N1CC[C@@H](Nc2nc(Nc3cnn(C)c3)nc3ccoc23)C1 [Example 93] | ≤ 50 nM | 10 to 100 nM |
| C=CC(=O)N1CC[C@@H](Nc2nc(Nc3cc(C)ns3)nc3ccoc23)C1 [Example 94] | ≤ 50 nM | ≤ 10 nM |
| C=CC(=O)N1CC(CNc2nc(Nc3cnn(C)c3)nn3cccc23)C1 [Example 136] | ≤ 50 nM | – |
